Measurements from patent publication US20230050070A1, “Antimicrobial Composition” (ATLANTIC TECHNOLOGIECAL UNIVERSITY, priority 2019, published 2023).

System: various species of microorganism
Assay: Well diffusion / Kirby-Bauer test, zones of inhibition
Type: cell-based
Conditions: SA and ASA tested alone, without A^3IS
Experimental: The purpose of the Kirby-Bauer disk diffusion susceptibility test is to determine the sensitivity or resistance of pathogenic aerobic and facultative anaerobic bacteria to various antimicrobial compounds.
Escherichia coli (NCIMB 8545), Staphylococcus aureus (NCIMB 951 and Pseudomonas aeruginosa (NCIMB 8626) are grown on nutrient agar or in nutrient broth for 24 hrs at 37° C.
Candida albicans (NCIMB 3179) and Saccharomyces cerevisiae are grown on sabaroud dextrose agar or in sabaroud dextrose broth for 24 hrs at 37° C.,
Bacterial growth is monitored by measuring the culture optical density (OD) in a spectrophotometer (Anthos 2010) at a wavelength of 620 nm.
Agar plates are inoculated by swabbing overnight culture onto the plate surface. Plates are allowed to stand at room temperature for 15 minutes before use. Wells 8.2 mm diameter are bored into the surface of the agar. A 180 μl sample is placed into each well. The samples diffuse into the agar around the well and are assayed for an ability to produce a zone of inhibition. Plates are incubated for 24, 48 or 72 hrs and zones of inhibition are measured using an Autodata automatic zone reader. The diameter of zones, including the diameter of the well (8.2 mm), is recorded.
Different microbial strains were each plated out according to the above-mentioned methods. […]

CC(=O)Oc1ccccc1C(=O)O [ASA, Acetyl salicylic acid]
antimicrobial activity: no discernible activity

O=C(O)c1ccccc1O [SA, Salicylic acid]
antimicrobial activity: no discernible activity
